Values quoted from earlier work in EP0127274A2, “Esters of metronidazole and compositions containing them” (THE UPJOHN COMPANY, priority 1983, dated 1984).

Conditions: background statement

Question: For `Cc1ncc([N+](=O)[O-])n1CCO` [metronidazole, 1-(O-hydroxyethyl)-2-methyl-5-nitroimidazole], which solubility in water is on record?
Answer: approximately 10 mg/ml
